Test results: US12649734B2, “Bioavailable protein disulfide isomerase inhibitors” (THE CLEVELAND CLINIC FOUNDATION, priority 2020, dated 2026)

How the values were obtained:
MM1.S cells = experiment: RNA-seq gene expression profiling; assay type: cell-based, human; conditions: 3 μM, 6 h
Protocol: FIGS. 7A-7H provide graphs showing CCF642-34 is selective for PDIA1 inhibition-induced ER stress response pathway. MM1.S cells were treated with 3 μM of either CCF642 or CCF642-34 for 6 h, and gene expression analysis was performed by RNA sequencing. (A,B) Volcano plots showing CCF642-34 and CCF642 compared to DMSO control. The criteria for differential expression were at least a 2-fold change with p value less than 0.05. The analysis was performed in Originlab, Version 2019b (OriginLab Corporation, Northampton, MA, USA). […] The diagram was generated using a web-based bioinformatics server. (D,E) Hierarchical clusterings with heat map of MM1.S cells treated with vehicle CCF642-34 or CCF642 are shown for response to endoplasmic reticulum stress and unfolded protein response gene sets. (F-H) Heat maps of PERK and ATF6 target genes, Nrf2, and ER-associated degradation (ERAD) pathways are compared between control and inhibitor-treated MM1.S cells. Data analysis was performed using a web-based server and the Broad Institute Morpheus software.
RNA-seq and analysis: MM1.S cells were treated with 3 μM of either CCF642 or CCF642-34 for 6 h, and RNA was purified by using the NucleoSpin RNA kit (Takara Bio USA, Inc.; cat. #740955) according to the manufacturer's instruction. The RNA sequencings were completed as reported previously. Guan et al., Commun. Biol., 3, 1-13 (2020) The RNA-seq data were sub-mitted to the Gene Expression Omnibus (GEO) repository at the National Center for Biotechnology Information (NCBI) archives, with assigned GEO accession number GSE167097.

[1] = Stability in acidic conditions (6 N HCl); assay type: physicochemical; conditions: 3 h
Protocol: To evaluate pharmacological properties of CCF642-34, the stability in acidic conditions (6 N HCl) and upon exposure to human liver microsomes was tested. […] It was therefore concluded that CCF642-34 may be orally bioavailable and effective against MM in vivo.

PDIA1 = PDIA1 (Homo sapiens, UniProt P07237); experiment: Target validation in cells with biotinylated analogues (streptavidin blot, pull down, LCMS); assay type: cell-based; conditions: streptavidin blot and pull down of treated MM1.S cells
PDIA1, sequence (P07237 18-508): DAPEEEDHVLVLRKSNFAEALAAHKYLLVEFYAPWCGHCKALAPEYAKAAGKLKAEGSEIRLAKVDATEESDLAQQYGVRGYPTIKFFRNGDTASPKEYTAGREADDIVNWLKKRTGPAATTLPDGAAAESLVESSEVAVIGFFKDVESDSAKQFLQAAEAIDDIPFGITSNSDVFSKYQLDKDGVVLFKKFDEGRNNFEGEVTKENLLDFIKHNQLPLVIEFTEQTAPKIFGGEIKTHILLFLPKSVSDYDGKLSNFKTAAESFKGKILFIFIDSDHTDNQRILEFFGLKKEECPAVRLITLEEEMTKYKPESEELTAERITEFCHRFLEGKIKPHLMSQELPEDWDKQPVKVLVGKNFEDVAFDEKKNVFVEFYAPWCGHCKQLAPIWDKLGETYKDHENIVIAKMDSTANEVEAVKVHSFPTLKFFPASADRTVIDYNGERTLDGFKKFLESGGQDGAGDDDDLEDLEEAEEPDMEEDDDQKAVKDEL
Protocol: FIGS. 4A-4G provide graphs and images showing that model-based design improves potency and selectivity of protein disulfide isomerase A1 (PDIA1) inhibitors. (A) Ribbon diagram of CCF642-34 docked onto PDIA1. (B) Two-dimensional structure of modified CCF642 pharmacophore, where R represents amino acids tryptophan, tyrosine, phenylalanine, histidine, proline, or alanine. (C) PDIA1/PH4B activity assay was performed in the absence or presence of CCF642 or (D) CCF642-34. In time-dependent inhibition of di-E-GSSG, reduction was monitored for 1 h by the increase in fluorescence, and the relative fluorescence unit was plotted as a function of time. (E-F) The observed rate constant for inhibition, kobs, at each concentration determined from the slope of kinetic data presented in panel C and D. The kobs values are re-plotted against inhibitor concentration and fitted to a hyperbolic equation, kobs=k2[I]/(Ki+[I]), to obtain values for Ki and k2 in GraphPad Prism v8.0.2. The concentration of drug is indicated on each curve, for (E) 642 and (F) CCF642-34. (G) Target validation. […]
Mass spectrometry: Tryptic peptide mixtures were analyzed by online LC-coupled tandem mass spectrometry (LCMS/MS) on an Orbitrap mass spectrometer (Thermo Fisher) as described previously. […] A peak list was created for each analyzed fraction (i.e., gel slice) and individual Sequest searches were performed for each fraction. […]

NC(CC1CNc2ccccc21)C(=O)NCCCOc1ccc(N2C(=O)/C(=C/c3ccc([N+](=O)[O-])s3)SC2=S)cc1 (stereo not drawn) [CCF642-34]
TRIB3 upregulation compared to controls (MM1.S cells): ~20 fold
number of downregulated genes (MM1.S cells): 156 genes
number of upregulated genes (MM1.S cells): 206 genes
number of genes with changed expression compared to vehicle control (MM1.S cells; 2-fold change, p less than 0.05): 362 genes
compound recovered after exposure to acid [1]: greater than 80%
binding selectivity in MM1.S cells (PDIA1): remarkable selectivity for PDIA1
